In patent US12337005B2, “Methods of treating thrombosis” (UNIVERSITY OF IOWA RESEARCH FOUNDATION, priority 2020, dated 2025):

Legend:
human platelets [1] = assay: Glucose uptake assay, human platelets; type: cell-based; conditions: human platelets stimulated with convulxin or thrombin; ML265 pre-treated (50 and 100 μM)
Procedure: Glucose uptake was determined in activated versus non-activated platelets using 10 mM ^14C-2-deoxy-glucose. Washed platelets (2×10^8/mL) treated with vehicle (DMSO) or ML265 (50 and 100 μM) were incubated in 1× Tyrode buffer and stimulated with convulxin or thrombin for 10 minutes, placed on ice and then centrifuged at 4000 rpm for 5 minutes. The pellets were washed with cold 1×PBS and solubilized in 1N NAOH. Radioactive counts were determined using a Perkin Elmer TriCarb 2800TR liquid scintillation counter.

murine platelets = assay: P-selectin expression (α-granule secretion), mouse platelets; type: cell-based; conditions: stimulus-activated mouse platelets pretreated with ML265
Procedure: Platelets (1×10^8 cells in 100 μl) were pre-incubated for 10 min either in presence or absence of ML265 (50 and 100 μM) then stimulated by convulxin or TRAP without stirring. Following this, platelets were labeled with PE-labeled anti-CD61 antibody and FITC conjugated anti-CD62P antibody. The platelet samples were incubated for 30 min in the dark at room temperature and analyzed on the flow cytometer (FACS Calibur, Becton Dickinson). An amorphous region (gate) was drawn to differentiate the platelets from the noise and multi-platelet particles. After compensation for FITC and PE, CD61-positive 10,000 events were collected for each sample.

human platelets [2] = assay: ATP secretion from dense granules, human platelets; type: cell-based; conditions: stimulus-activated human platelets pretreated with ML265
Procedure: (§1) Platelet rich plasma (PRP) or washed platelets (2×10^8/ml) treated with vehicle (DMSO) or ML265 (50 and 100 μM) were stirred (1200 rpm) at 37° C. for 2 min in a whole blood/optical lumi-aggregometer (Chrono-log; model 700-2) before the addition of agonists (convulxin, collagen, thrombin, PAR4, TRAP (PAR1 agonist) or adenosine diphosphate [ADP]). Aggregation was measured as percent change in light transmission, where 100% refers to transmittance through the blank sample (PRP/Buffer). Platelet dense granule secretion was determined by measuring the release of ATP using luciferin-luciferase reagent. To examine the effect of ML265 on ATP secretion, washed platelets were pretreated with vehicle (DMSO) or ML265 (50 and 100 μM) for 10 minutes before stimulation with various agonists. ATP release was performed in a lumi-aggregometer (Chrono-log; model 700-2) at 37° C.

[3] = system: PI3 kinase-mediated Akt/GSK3β signaling; assay: Western blot of Akt/GSK3β phosphorylation, human platelets; type: cell-based; conditions: convulxin- or thrombin-mediated, ML265 50 and 100 μM
Procedure: Platelet proteins were separated on 4-20% SDS-PAGE (sodium dodecyl sulfate-polyacrylamide gel electrophoresis) gradient gels and electrophoretic transferred to PVDF (polyvinylidene fluoride) membrane by using Bio-Rad western blotting system. For PKM2 dimer and tetramer study 6% native gels are used. Membranes were blocked with 5% BSA or skimmed milk in 10 mM Tris-HCl, 150 mM NaCl, pH 8.0 (TBS) containing 0.05% Tween-20 for one hour at room temperature. Blots were incubated for overnight with primary antibody, followed by horseradish peroxidase-labeled secondary antibody for one hour. Blots were developed using enhanced chemiluminescence and quantified using Image J software from NIH (Bethesda, MD, USA).

[4] = system: platelets from obese mice; assay: Platelet aggregation, platelets from obese mice; type: cell-based, mouse; conditions: collagen (1 μg/mL) and thrombin (0.02 U/mL)
Text: FIGS. 16A-16D. ML265 inhibits platelet aggregation and arterial thrombosis in pre-existing comorbid condition of obesity. Wild-type (C57BL6/J) mice fed a chow and high-fat diet (Cat #TD.06414, Envigo, 60% Kcal from fat) for 4 months. (A) Blood glucose levels (B) Blood glucose levels during the insulin tolerance test. Statistics (A & B): Two-way ANOVA with Tukey's multiple comparisons test (*P<0.05, **P<0.01, ***P<0.001, ****P<0.0001; n=10 mice/group). (C) Platelet rich plasma or washed platelets from obese mice were pretreated with vehicle or ML265 and stimulated with agonists including collagen (1 μg/mL) and thrombin (0.02 U/mL). The results are represented as percent change light transmission after subtracting the blank (platelet poor plasma/Tyrode's buffer). […]
as §1, with “To examine the effect of ML265 on ATP secretion, washed platelets were pretreated with vehicle (DMSO) or ML265 (50 and 100 μM) for 10 minutes before stimulation with various agonists. ATP release was performed in a lumi-aggregometer (Chrono-log; model 700-2) at 37° C.” left out

[5] = cited from earlier work

Which glucose uptake (human platelets [1]) does the source give for `Cn1c2cc([S+](C)[O-])sc2c2cnn(Cc3cccc(N)c3)c(=O)c21` (stereo not shown) [ML265, 6-[(3-aminophenyl)methyl]-4,6-dihydro-4-methyl-2-(methylsulfinyl)-5H-thieno[2′,3′:4,5]pyrrolo[2,3-d]pyridazine-5-one] here?
The glucose uptake was “significantly decreased”.

And the “α-granule secretion (P-selectin exposure)” value (murine platelets)?
Its value is “significant decrease”.

What about the “dense-granule secretion (ATP release)” value (human platelets [2]) of the same compound?
The value was “significant decrease”.

What about the Akt phosphorylation [3] of the same compound?
The Akt phosphorylation was “down-regulated”.

And the GSK3β phosphorylation [3]?
The GSK3β phosphorylation was “down-regulated”.

And the “platelet aggregation in pre-existing comorbid condition of obesity” value [4]?
Its value is “inhibited”.

What about the half-life [5] of the same compound?
Its half-life is “short”.
